Assay results as given in US9233143B2, “Medicinal agent for preventing exacerbation of malignant tumor, comprising combination of natriuretic peptide receptor GC-A and GC-B agonists” (National Cerebral and Cardiovascular Center, priority 2011, dated 2016).

Tests used:
[1] = tested on: A549 cells; assay: Changes in the intracellular cGMP level in response to natriuretic peptide stimulus, A549 cells; type: cell-based, human; conditions: 1×10^−11 M to 1×10^−6 M, 10 minutes, FIG. 1A
Method: Lung adenocarcinoma cell line, A549 cells, was obtained from ATCC (Manassas, Va.). The cells were cultured in DMEM culture medium (Invitrogen, Carlsbad, Va.) containing 10% FCS under 5% CO2 at 37° C. The amounts of the culture medium were 1.5 mL for each well of a 6-well dish, 400 μL for each well of a 24-well dish, and 150 μL for each well of a 96-well dish. In the Examples below, unless otherwise stated, the same culture medium and culture conditions were adopted.
The A549 cells were cultured in a 24-well dish at 4×10^4 cells/well, and the culture medium was replaced with DMEM culture medium free from FCS the next day. The CAFs were cultured in a 24-well dish at 1×10^4 cells/well, and the culture medium was replaced with DMEM culture medium containing 1% FCS the next day.
To these culture media, solutions of hANP, hBNP, and hCNP-22 (final concentration: ten-fold serial dilution from 1×10^−11 M to 1×10^−6 M, the same amount of physiological saline was used as a control) were separately added. After 10 minutes had passed, 400 μL of cooled 70% ethanol (containing 0.1 N hydrochloric acid) was added, and ultrasonication was performed for a short time. The treated solution was lyophilized, and the cGMP level was measured using Cyclic GMP Assay kit (made by Yamasa Corp.).

[2] = tested on: tumor cells; conditions: reports by Vesely et al.; cited from earlier work
[3] = tested on: CAFs; assay: Production of cancer exacerbation factors by CAFs under TGF-β1 stimulus (quantitative RT-PCR); type: cell-based, human; conditions: test substance 1 μM, TGF-β1 0.125-2.0 ng/mL, 24 hours, mRNA level, FIG. 5
Method: Using a 6-well dish, the CAFs were cultured at 5×10^4 cells/well, and the culture medium was replaced with DMEM culture medium containing 1% FBS the next day. After 24 hours of culture, the cells were used in the following experiment.
A CNP group (a hCNP-22 solution was added (final concentration: 1 μM)) and a control group (the same amount of physiological saline was added) were prepared, and after 2 hours from the addition (of the hCNP-22 solution or the physiological saline) to the CAFs, TGF-β1 was added so that the final concentration would be 0.125, 0.25, 0.5, 1.0, and 2.0 ng/mL. After 24 hours had passed, total RNA was recovered using TRIZOL total RNA isolation reagent, cDNA was synthesized using reverse transcriptase, and the mRNA levels of VEGF-A, TGF-β1, TNF-α, and IL-6 were measured by quantitative RT-PCR.

[4] = tested on: A549 cells; assay: EMT induced by TGF-β1 in A549 cells (morphology, quantitative RT-PCR); type: cell-based, human
Method: Using a 6-well dish, the A549 cells were cultured at 1×10^5 cells/well, and the culture medium was replaced with DMEM culture medium free from FBS the next day. After 24 hours of culture, the cells were used in the following experiment.
An ANP group (a hANP solution was added (final concentration: 1 μM)) and a control group (the same amount of physiological saline was added) were prepared, and after 2 hours from the addition (of the hANP solution or the physiological saline) to the A549 cells, TGF-β1 was added so that the final concentration would be 0.125, 0.25, 0.5, 1.0, and 2.0 ng/mL. After 24 hours had passed, the morphological change in the cells was observed under a microscope and photographed (FIG. 2).
Then, total RNA was recovered from the above prepared ANP group and control group using TRIZOL total RNA isolation reagent (made by Invitrogen), cDNA was synthesized using reverse transcriptase, and the mRNA levels of E-cadherin, N-cadherin, VEGF-A, PDGF-B, TNF-α, and IL-6 were measured by quantitative RT-PCR. The mRNA level of each intended gene was calculated as the relative ratio of the mRNA amount of the gene to that of the housekeeping gene 36B4 measured at the same time. In the Examples below, unless otherwise stated, the mRNA levels were obtained through the same calculation.
It is known that in EMT, the expression of E-cadherin decreases while the expression of N-cadherin increases. The expression ratio of the two kinds of cadherin (N-cad/E-cad) is considered to be useful as an indicator of the degree of EMT.

[5] = tested on: A549 cells co-cultured with CAFs; assay: Co-culture system of cancer cells and CAFs (mRNA of the A549 cells); type: cell-based, human; conditions: each test substance 1 μM
Method: In a 6-well dish, the A549 cells were cultured at 1×10^5 cells/well. The culture medium was replaced with DMEM culture medium free from FBS the next day, and the cells were further cultured for 24 hours. In a 6-well dish having a cell culture insert (1.0 μm pore size, made by BD), the CAFs were cultured at 5×10^4 cells/well. The culture medium was replaced with DMEM culture medium containing 1% FBS the next day, and the cells were further cultured for 24 hours. To each culture medium of the two kinds of cells, test substances were separately added to prepare test substance addition groups. Control groups with no test substance were also prepared. After two hours of culture, these were subjected to co-culture. The test substance addition groups were ANP groups containing hANP at a final concentration of 1 μM, CNP groups containing hCNP-22 at a final concentration of 1 μM, and ANP+CNP groups containing both hANP and hCNP-22 each at a final concentration of 1 μM. Each of the groups were prepared by adding the test substance to each culture medium of the two kinds of cells.
On the 6-well dish of A549 cells treated as above, the above cell culture insert with the CAFs was placed to prepare a co-culture experimental model where only the culture media could pass through the cell culture insert. After 24, 48, and 72 hours of culture, total RNA of the A549 cells only was recovered, cDNA was synthesized, and the mRNA levels of E-cadherin, N-cadherin, VEGF-A, PDGF-B, and IL-6 were measured by quantitative RT-PCR (FIGS. 6 to 8). The experiment using ANP alone (ANP groups: FIG. 6), the experiment using CNP alone (CNP groups: FIG. 7), and the experiment using ANP and CNP in combination (ANP+CNP group: FIG. 8) were independently conducted, where control groups were separately set for each experiment.

[6] = A549 cells, test substance 1 μM, mRNA level, FIG. 3

Compound: CC[C@H](C)[C@@H]1NC(=O)[C@H](CCCNC(=N)N)NC(=O)[C@H](CC(=O)O)NC(=O)[C@H](CCSC)NC(=O)[C@H](CCCNC(=N)N)NC(=O)CNC(=O)CNC(=O)[C@H](Cc2ccccc2)NC(=O)[C@@H](NC(=O)[C@H](CO)NC(=O)[C@H](CO)NC(=O)[C@H](CCCNC(=N)N)NC(=O)[C@H](CCCNC(=N)N)NC(=O)[C@H](CC(C)C)NC(=O)[C@@H](N)CO)CSSC[C@@H](C(=O)N[C@@H](CC(N)=O)C(=O)N[C@@H](CO)C(=O)N[C@@H](Cc2ccccc2)C(=O)N[C@@H](CCCNC(=N)N)C(=O)N[C@@H](Cc2ccc(O)cc2)C(=O)O)NC(=O)CNC(=O)[C@H](CC(C)C)NC(=O)CNC(=O)[C@H](CO)NC(=O)[C@H](CCC(N)=O)NC(=O)[C@H](C)NC(=O)CNC1=O [hANP]
- intracellular cGMP level of the A549 cells [1]: increased the intracellular cGMP level of the A549 cells in a concentration-dependent manner
- growth-suppressing activity on tumor (cancer) cells [2]: growth-suppressing effect
- gene expression of the growth factors (VEGF-A, TGF-β1) and the inflammatory cytokines (TNF-α, IL-6) increased by the TGF-β1 stimulus in CAFs [3]: did not show any effect on CAFs
- expression ratio of N-cad/E-cad (indicator of EMT) ([4]; A549 cells, 1 μM hANP, TGF-β1 stimulus, FIG. 4): significantly decreased
- morphological change in the cells associated with EMT induced by the TGF-β1 stimulus ([4]; A549 cells, test substance 1 μM, 24 hours after TGF-β1, FIG. 2): significantly suppressed
- gene expression of the growth factors (VEGF-A, PDGF-B) and the inflammatory cytokines (TNF-α, IL-6) increased by EMT induced by the TGF-β1 stimulus ([4]; A549 cells, test substance 1 μM, TGF-β1 0.125-2.0 ng/mL, 24 hours, mRNA level, FIG. 3): significantly suppressed
- decrease in the expression of E-cadherin induced by the TGF-β1 stimulus [4, 6]: inhibited decrease
- increase in the expression of N-cadherin induced by the TGF-β1 stimulus [4, 6]: significantly suppressed increase
- effect of suppressing EMT ([4]; concentration of 1 μM, summary of Example 2): significantly suppressing EMT
- gene expression of the growth factors (VEGF-A, PDGF-B) and inflammatory cytokine (IL-6) increased in the co-culture ([5]; A549 cells co-cultured with CAFs 24, 48, 72 hours, FIGS. 6 to 8): could not suppress
- expression ratio of N-cadherin/E-cadherin (N-cad/E-cad), indicator of EMT, in the co-culture ([5]; A549 cells co-cultured with CAFs, FIGS. 6D, 7D, 8D): did not show any effect
